test system: micromass culture of mesenchymal cells; test: not given; conditions: 30 μM in micromass culture; cited from earlier work

For `O=C(NC(Cc1c[nH]c2ccc(F)cc12)C(=O)NCC1CC(Br)=NO1)OCc1cnc2ccccc2c1` (centres unmarked) [ERW1069], the Xylt2 expression is given as “increase”.

In the case of `O=C(NC(Cc1c[nH]c2ccc(F)cc12)C(=O)NCC1CC(Br)=NO1)OCc1cnc2ccccc2c1` (centres unmarked) [ERW1069], the proteoglycan deposition is listed as “increase”.

target: recombinant human TGM2 (Homo sapiens (Human), UniProt P21980); test: Assay for quantification of TGM2 transglutaminase inhibitory activity (fluorescence, H-Abz-APE(CAD-DNP)QEA-OH substrate); assay type: biochemical; conditions: recombinant human TGM2 25 μg/ml; substrate 50 μM, glycine methyl ester 5 mM; 15 min preincubation at room temperature; pH 7.5; read-out: IC50 values for inhibition of TGM2
Protocol: a) Assay Method for the Quantification of TGM2 Transglutaminase Inhibitory Activity
The activity of the compounds for inhibition of TGM2 was determined with recombinant human TGM2 (Zedira GmbH, Darmstadt, Germany, Product Nr. T002) and the peptidic compound H-Abz-APE(CAD-DNP)QEA-OH as substrate (Zedira GmbH, Darmstadt, Germany, Product Nr. A102; CAD-DNP is N^ω-2,4-dinitrophenyl-cadaverine, i.e. the carboxylic acid group in the side chain of the respective glutamyl moiety is amidated with the primary amino group of N-(2,4-dinitrophenyl)pentane-1,5-diamine; cf. also K. Oertel et al., Anal. Biochem. 2007, 367: 152-158). For this purpose, 2 μl of a solution of different concentrations of the test compound in dimethyl sulfoxide was added to 28 μl of buffer (50 mM TRIS, 100 mM NaCl, 10 mM CaCl2, pH 7.5) and 10 μl of a TGM2 solution to give a TMG2 test concentration of 25 μg/ml, and the mixture incubated for 15 minutes at room temperature in a 96 half-well microtiter plate. The enzyme reaction was started by the addition of 10 μl of substrate solution containing H-Abz-APE(CAD-DNP)QEA-OH and glycine methyl ester hydrochloride in buffer to give test concentrations of H-Abz-APE(CAD-DNP)QEA-OH of 50 μM and of glycine methyl ester hydrochloride of 5 mM. The time course of the reaction was monitored with excitation at 318 nm and measurement at emission wavelength 418 nm in a microtiter plate reader (SpectraMax M5, Molecular Devices) over 15 minutes. Rates were calculated from the linear part of the curve (generally between 5 and 10 minutes). IC50 values were calculated from the means (duplicates) of a dilution series of the compound, using the software Softmax Pro (Version 4.8, Molecular Devices).

Sequence of recombinant human TGM2 (P21980 whole entry): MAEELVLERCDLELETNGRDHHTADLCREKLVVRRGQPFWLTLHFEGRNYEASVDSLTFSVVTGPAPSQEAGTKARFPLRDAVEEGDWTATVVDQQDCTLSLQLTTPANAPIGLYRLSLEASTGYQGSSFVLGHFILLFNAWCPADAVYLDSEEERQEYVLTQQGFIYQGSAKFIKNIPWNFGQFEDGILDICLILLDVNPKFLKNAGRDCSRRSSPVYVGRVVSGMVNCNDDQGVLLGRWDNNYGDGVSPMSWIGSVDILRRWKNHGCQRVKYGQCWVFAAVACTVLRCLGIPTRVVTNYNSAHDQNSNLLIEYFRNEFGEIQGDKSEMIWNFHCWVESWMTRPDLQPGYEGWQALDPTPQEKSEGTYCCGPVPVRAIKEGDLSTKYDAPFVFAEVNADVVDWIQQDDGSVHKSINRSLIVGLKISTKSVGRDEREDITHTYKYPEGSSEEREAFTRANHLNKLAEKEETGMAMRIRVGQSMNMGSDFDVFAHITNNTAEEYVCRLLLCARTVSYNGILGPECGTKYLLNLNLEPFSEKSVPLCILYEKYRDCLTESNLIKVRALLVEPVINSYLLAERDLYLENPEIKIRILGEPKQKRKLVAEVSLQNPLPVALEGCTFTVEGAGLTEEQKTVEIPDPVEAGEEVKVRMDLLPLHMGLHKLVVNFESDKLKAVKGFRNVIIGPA

Going from `O=C(N1CCOCC1)n1sc2c(ccc[n+]2[O-])c1=O` [Example 5] to `O=C(N1CCNCC1)n1sc2c(ccc[n+]2[O-])c1=O` [Example 72], the IC50 rises from 0.27 µM to 1.2 µM (4.4-fold). The first is the more potent here.

Compared with `N#Cc1ccc(N2CCN(C(=O)n3sc4ncccc4c3=O)CC2)cc1` [Example 6], `CC(=O)N1CCN(C(=O)n2sc3ncccc3c2=O)CC1` [Example 26] is 3.2-fold lower in IC50: 1.1 µM for the first, 0.34 µM for the second. The second is the more potent here.

Going from `O=C(O)CN1CCN(C(=O)n2sc3ncccc3c2=O)CC1` [Example 8] to `O=C(O)CN1CCN(C(=O)n2sc3c(ccc[n+]3[O-])c2=O)CC1` [Example 10], the IC50 falls from 18 µM to 12 µM (1.5-fold). The second is the more potent here.

Compared with `CC(NC(=O)n1sc2c(ccc[n+]2[O-])c1=O)c1ccc2c(c1)OCCO2` (centres unmarked) [Example 16], `COc1ccc(CNC(=O)n2sc3c(ccc[n+]3[O-])c2=O)cc1OC` [Example 24] is 70-fold lower in IC50: 26 µM for the first, 0.37 µM for the second. The second is the more potent here.

Compared with `O=C(CCOc1ccccc1)N1CCN(C(=O)n2sc3ncccc3c2=O)CC1` [Example 20], `O=C(CCOc1ccccc1)N1CCN(C(=O)n2sc3c(ccc[n+]3[O-])c2=O)CC1` [Example 21] is 7.9-fold lower in IC50: 0.11 µM for the first, 0.014 µM for the second. The second is the more potent here.

First: O=C(C1CC1)N1CCN(C(=O)n2sc3ncccc3c2=O)CC1 [Example 27]
Second: O=C(C1CC1)N1CCN(C(=O)n2sc3c(ccc[n+]3[O-])c2=O)CC1 [Example 28]
The IC50 of the first is 9.3-fold higher: 0.42 µM for the first, 0.045 µM for the second. The second is the more potent here.

`CC(C)C(=O)N1CCN(C(=O)n2sc3c(ccc[n+]3[O-])c2=O)CC1` [Example 29] and `CC(=O)N1CCN(C(=O)n2sc3c(ccc[n+]3[O-])c2=O)CC1` [Example 70] are the same in IC50: 0.062 µM for the first, 0.062 µM for the second.

First: CCS(=O)(=O)N1CCN(C(=O)n2sc3ncccc3c2=O)CC1 [Example 36]
Second: CCS(=O)(=O)N1CCN(C(=O)n2sc3c(ccc[n+]3[O-])c2=O)CC1 [Example 38]
The IC50 of the first is 7-fold higher: 0.43 µM for the first, 0.061 µM for the second. The second is the more potent here.

First: CN1CCN(C2CCN(C(=O)n3sc4c(ccc[n+]4[O-])c3=O)CC2)CC1 [Example 40]
Second: O=C1NCCN1C1CCN(C(=O)n2sc3c(ccc[n+]3[O-])c2=O)CC1 [Example 62]
The IC50 of the first is 9.1-fold lower: 0.34 µM for the first, 3.1 µM for the second.

Compared with `CNC1CCN(C(=O)n2sc3c(ccc[n+]3[O-])c2=O)CC1` [Example 42], `O=C(N1CCC(O)CC1)n1sc2c(ccc[n+]2[O-])c1=O` [Example 86] is 8.8-fold higher in IC50: 0.24 µM for the first, 2.1 µM for the second. The first is the more potent here.

First: NCC(=O)N1CCN(C(=O)n2sc3c(ccc[n+]3[O-])c2=O)CC1 [Example 44]
Second: NC(=O)N1CCN(C(=O)n2sc3c(ccc[n+]3[O-])c2=O)CC1 [Example 84]
The IC50 of the first is 14-fold lower: 0.12 µM for the first, 1.7 µM for the second. The first is the more potent here.

Going from `O=C(N1CCC2(CCCN2)CC1)n1sc2c(ccc[n+]2[O-])c1=O` [Example 45] to `O=C([C@@H]1CCCN1)N1CCN(C(=O)n2sc3c(ccc[n+]3[O-])c2=O)CC1` [Example 50], the IC50 falls from 4.3 µM to 2.3 µM (1.9-fold). The second is the more potent here.

`O=C(N1CCN(c2ccc(N3CCCC3)nn2)CC1)n1sc2c(ccc[n+]2[O-])c1=O` [Example 46] and `O=C(c1ccncc1)N1CCN(C(=O)n2sc3c(ccc[n+]3[O-])c2=O)CC1` [Example 74] are within 1.5-fold of each other in IC50: 0.14 µM for the first, 0.13 µM for the second.

Going from `CCNCC(=O)N1CCN(C(=O)n2sc3c(ccc[n+]3[O-])c2=O)CC1` [Example 55] to `COCCC(=O)N1CCN(C(=O)n2sc3c(ccc[n+]3[O-])c2=O)CC1` [Example 83], the IC50 falls from 2 µM to 0.75 µM (2.7-fold). The second is the more potent here.

First: O=C1CC[C@@H](C(=O)N2CCN(C(=O)n3sc4c(ccc[n+]4[O-])c3=O)CC2)N1 [Example 59]
Second: O=C(c1ccccn1)N1CCN(C(=O)n2sc3c(ccc[n+]3[O-])c2=O)CC1 [Example 89]
The IC50 of the first is 14-fold higher: 1 µM for the first, 0.072 µM for the second.

`COc1ccc(C(=O)N2CCN(C(=O)n3sc4ncccc4c3=O)CC2)cc1OC` [Example 68] and `COc1ccc(C(=O)N2CCN(C(=O)n3sc4c(ccc[n+]4[O-])c3=O)CC2)cc1OC` [Example 69] are within 1.5-fold of each other in IC50: 0.065 µM for the first, 0.054 µM for the second.

`CCCC(=O)C1CCN(C(=O)n2sc3c(ccc[n+]3[O-])c2=O)CC1` [Example 78] and `O=C1CN(C(=O)n2sc3c(ccc[n+]3[O-])c2=O)CCN1` [Example 80] are within 1.5-fold of each other in IC50: 0.12 µM for the first, 0.15 µM for the second.

`C[C@@H]1CN(C(=O)n2sc3c(ccc[n+]3[O-])c2=O)C[C@H](C)O1` [Example 81] gave an IC50 of 2.9 µM.

test system: chondrocytes; test: not given; conditions: cited from earlier work

For `NCCSSCCN` [cystamine], the “active TGFβ1 in chondrocytes” value is listed as “decrease”.
